Experimental data published in US20160229835A1, “NOVEL PYRIDYLOXYACETYL TETRAHYDROISOQUINOLINE COMPOUNDS USEFUL AS NAMPT INHIBITORS” (ELI LILLY AND COMPANY, priority 2013, published 2016).

Key:
[1] = tested on: Calu-6 (lung cancer) cells; assay: Cell Viability Assay, Calu-6; format: cell-based; conditions: Homo sapiens, 72 hours
Procedure: (§1) The purpose of this assay is to measure the ability of a compound to reduce viability of different cancer cells dependent on the NAMPT-mediated NAD^+ formation in vitro. HCC1937 (breast cancer) cells are cultured in RPMI-1640 supplemented with 10% FBS. Calu-6 (lung cancer) cells and MCF-7 (breast cancer) cells are cultured in Minimum Essential Medium (MEM) (Gibco11095) supplemented with 1 mM sodium pyruvate (Gibco 11360), 1% Non-Essential Amino Acids Solution (100×; Gibco 11140) and 10% FBS. NCI-H1155 (lung cancer) cells are cultured in Dulbecco's Modified Eagle Medium (DMEM) (Gibco 11965) with 10% FBS. […] Cell viability is analyzed by using an assay kit (CYTOTOX-GLO™ Cytotoxicity Assay kit, Promega) according to the manufacturer's instructions as follows. […] Luminescence is measured using a Wallac Victor3 V 1420 Multilabel Counter (Perkin Elmer), referred to as dead cell luminescence. […] After the plate is incubated at room temperature for 15 minutes, luminescence is measured using the plate reader, referred to as total luminescence. Viable cell luminescence (CPS) is calculated by subtracting the dead cell luminescence from the total luminescence Inhibition of cell viability is calculated based on the equation as follows:
(§2) Inhibition (%)=(CPSnegative−CPSsample)/(CPSnegative−CPSpositive)*100 where CPS is the luminescence of viable cells.

[2] = tested on: MCF-7 (breast cancer) cells; assay: Cell Viability Assay, MCF-7; format: cell-based; conditions: Homo sapiens, MCF7, 72 hours
Procedure: as §1, §2

NAMPT = NAMPT (Homo sapiens, UniProt P43490); assay: NAMPT Biochemical Assay (NMN formation by LC-MS); conditions: relative IC50; 1.5 nM NAMPT, 2 hours at room temperature; read-out: IC50 (inhibition of NAMPT catalytic activity, NMN formation)
NAMPT, sequence (P43490 whole entry): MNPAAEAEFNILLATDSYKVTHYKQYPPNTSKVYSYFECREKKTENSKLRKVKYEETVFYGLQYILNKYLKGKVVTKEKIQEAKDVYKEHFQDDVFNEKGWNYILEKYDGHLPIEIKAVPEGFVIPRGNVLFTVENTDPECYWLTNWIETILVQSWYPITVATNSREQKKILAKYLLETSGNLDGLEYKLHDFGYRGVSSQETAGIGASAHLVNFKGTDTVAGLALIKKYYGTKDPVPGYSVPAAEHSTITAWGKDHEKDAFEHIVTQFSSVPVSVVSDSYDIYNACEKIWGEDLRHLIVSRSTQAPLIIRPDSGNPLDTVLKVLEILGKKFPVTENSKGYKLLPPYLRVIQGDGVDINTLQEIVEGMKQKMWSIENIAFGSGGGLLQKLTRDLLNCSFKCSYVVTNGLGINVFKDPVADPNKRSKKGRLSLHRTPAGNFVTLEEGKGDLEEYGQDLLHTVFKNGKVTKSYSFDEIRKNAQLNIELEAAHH
Procedure: The purpose of this assay is to measure the ability of a compound to inhibit NAMPT catalytic activity. Reaction mixtures (25 μL) containing 50 mM HEPES at pH 7.5, 50 mM NaCl, 1 mM DTT, 0.005% TRITON® X-100, 1.5 μM phosphoribosyl-pyrophosphate, 0.5 μM nicotinamide (NAM), 1.5 nM NAMPT, 2.5 mM ATP, 1.25 mM MgCl2, 4% (v/v) DMSO and compounds after a ten-point series dilution from either 1 μM to 50 pM or 0.1 μM to 5 pM (final) are prepared. The reaction mixtures are incubated at room temperature for 2 hours. The reaction is terminated by the addition of ACN (25 μL) containing nicotinamide mononucleotide-d4 (NMN-d4) as an internal standard (final concentration: 5 μM). […] A positive control group (enzyme and DMSO, but no compound) is used to measure minimum inhibition (0%) of NMN formation. Percent inhibition of compound treated groups is calculated relative to the minimum inhibition group. The relative IC50 for each compound is calculated from a dose response study and is the concentration necessary to achieve 50% inhibition at this time point using the above disclosed ranges of 1 μM to 50 pM (final). The data generated from the dose-response studies is fit to a four-parameter logistic equation using ACTIVITYBASE 4.0 Equation 205.

A2780 tumor model = assay: Efficacy in Xenograft Tumor Models, A2780; format: in vivo; conditions: nude mice, 4-day-on and 3-day-off schedule for 17 days
Procedure: (§3) The purpose of this assay is to measure reduction in tumor volume in response to test compound administration. A2780 and NCI-H1155 (NSCLC) cells are grown as described above for IVTI studies. Cells are harvested and injected subcutaneously onto the rear flank of nude mice. When tumors are established (7-21 days after implant), animals are randomized and grouped into control and test groups (7 animals/group). The test compound is formulated in 20% of CAPTISOL® and 25 mM of phosphate buffer, pH 2. Test compound and vehicle (20% of CAPTISOL® and 25 mM of phosphate buffer, pH 2 without compound) are administered by oral gavage. Tumor response is determined by tumor volume measurement (caliper) performed twice a week during the course of treatment and reported as percent of tumor volume of each treatment group divided by tumor volume of the vehicle control group. […] For example, Example 1 in H1155 tumor model, when dosed at 10 mg/kg (twice a day (BID) on a 4-day-on and 3-day-off schedule for 17 days, a T/C of 5.5 (P value<0.001 based on T-test) is achieved; when dosed at 20 mg/kg on the same schedule, a T/C of −81.1 (P value<0.001 based on T-test) is achieved. Example 2 in H1155 tumor model, when dosed at 8 mg/kg (twice a day (BID) on a 4-day-on and 3-day-off schedule for 17 days, a T/C of 5.2 (P value<0.001 based on T-test) is achieved; when dosed at 16 mg/kg on the same schedule, a T/C of −82.7 (P value<0.001 based on T-test) is achieved. Example 1 in A2780 tumor model, when dosed at 10 mg/kg (twice a day (BID) on a 4-day-on and 3-day-off schedule for 17 days, a T/C of 41.7 (P value<0.007 based on T-test) is achieved; when dosed at 20 mg/kg on the same schedule, a T/C of 2.4 (P value<0.001 based on T-test) is achieved.

[3] = tested on: NCI-H1155 (lung cancer) cells; assay: Cell Viability Assay, NCI-H1155; format: cell-based; conditions: Homo sapiens, 72 hours
Procedure: as §1, §2

H1155 tumor model = assay: Efficacy in Xenograft Tumor Models, NCI-H1155; format: in vivo; conditions: nude mice, 4-day-on and 3-day-off schedule for 17 days
Procedure: as §3

| IC50 [1] [µM] | IC50 [2] [µM] | IC50 (NAMPT) [µM] | IC50 [3] [µM] | SMILES | T/C (tumor volume of treatment group divided by vehicle control group) (A2780 tumor model; 10 mg/kg BID oral) [%] | T/C (tumor volume of treatment group divided by vehicle control group) (A2780 tumor model; 20 mg/kg BID oral) [%] | T/C (tumor volume of treatment group divided by vehicle control group) (H1155 tumor model; 10 mg/kg BID oral) [%] | T/C (tumor volume of treatment group divided by vehicle control group) (H1155 tumor model; 20 mg/kg BID oral) [%] | T/C (tumor volume of treatment group divided by vehicle control group) (A2780 tumor model; 8 mg/kg BID oral) [%] | T/C (tumor volume of treatment group divided by vehicle control group) (A2780 tumor model; 16 mg/kg BID oral) [%] | T/C (tumor volume of treatment group divided by vehicle control group) (H1155 tumor model; 8 mg/kg BID oral) [%] | T/C (tumor volume of treatment group divided by vehicle control group) (H1155 tumor model; 16 mg/kg BID oral) [%] |
| --- | --- | --- | --- | --- | --- | --- | --- | --- | --- | --- | --- | --- |
| 0.049 ± 0.008 | 0.389 ± 0.283 | 0.0031 | 0.018 ± 0.003 | CC(C)(O)CS(=O)(=O)Nc1ccc2c(c1)CCN(C(=O)COc1cccnc1)C2 [Example 1, 2-Hydroxy-2-methyl-N-[2-[2-(3-pyridyloxy)acetyl]-3,4-dihydro-1H-isoquinolin-6-yl]propane-1-sulfonamide] | 41.7 | 2.4 | 5.5 | −81.1 |  |  |  |  |
| 0.121 ± 0.029 | 0.352 ± 0.252 | 0.0011 | 0.037 ± 0.016 | COCCS(=O)(=O)Nc1ccc2c(c1)CCN(C(=O)COc1cccnc1)C2 [Example 2, 2-Methoxy-N-[2-[2-(3-pyridyloxy)acetyl]-3,4-dihydro-1H-isoquinolin-6-yl]ethanesulfonamide] |  |  |  |  | 40.5 | 1.5 | 5.2 | −82.7 |
